From PubChem BioAssay (NCI)
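Following 48 hours of exposure in 96-well plates, responses at five concentrations were used to interpolate endpoints linearly. Definition used: TGI = concentration required for complete inhibition of growth.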

Columns and labels:
Assay in all cases: DTP human tumour cell line panel, 48 h
786-0 renal = test system: 786-0 renal
A498 renal = test system: A498 renal
A549 NSCLC = test system: A549 NSCLC
ACHN renal = test system: ACHN renal
BT-549 breast = test system: BT-549 breast
CAKI-1 renal = test system: CAKI-1 renal
CCRF-CEM leukemia = test system: CCRF-CEM leukemia
COLO 205 colon = test system: COLO 205 colon
DU-145 prostate = test system: DU-145 prostate
EKVX NSCLC = test system: EKVX NSCLC
HCC-2998 colon = test system: HCC-2998 colon
HCT-116 colon = test system: HCT-116 colon
HCT-15 colon = test system: HCT-15 colon
HL-60(TB) leukemia = test system: HL-60(TB) leukemia
HOP-62 NSCLC = test system: HOP-62 NSCLC
HOP-92 NSCLC = test system: HOP-92 NSCLC
HS 578T breast = test system: HS 578T breast
HT29 colon = test system: HT29 colon
IGROV1 ovarian = test system: IGROV1 ovarian
K-562 leukemia = test system: K-562 leukemia
KM12 colon = test system: KM12 colon
LOX IMVI melanoma = test system: LOX IMVI melanoma
M14 melanoma = test system: M14 melanoma
MALME-3M melanoma = test system: MALME-3M melanoma
MCF7 breast = test system: MCF7 breast
MDA-MB-231 breast = test system: MDA-MB-231 breast
MDA-MB-435 = test system: MDA-MB-435
MDA-N = test system: MDA-N
MOLT-4 leukemia = test system: MOLT-4 leukemia
NCI-H226 lung = test system: NCI-H226 lung
NCI-H23 lung = test system: NCI-H23 lung
NCI-H460 lung = test system: NCI-H460 lung
NCI-H522 lung = test system: NCI-H522 lung
OVCAR-3 ovarian = test system: OVCAR-3 ovarian
OVCAR-5 ovarian = test system: OVCAR-5 ovarian
OVCAR-8 ovarian = test system: OVCAR-8 ovarian
PC-3 prostate = test system: PC-3 prostate
RPMI-8226 leukemia = test system: RPMI-8226 leukemia
RXF 393 renal = test system: RXF 393 renal
SF-268 CNS = test system: SF-268 CNS
SF-295 CNS = test system: SF-295 CNS
SF-539 CNS = test system: SF-539 CNS
SK-MEL-2 melanoma = test system: SK-MEL-2 melanoma
SK-MEL-28 melanoma = test system: SK-MEL-28 melanoma
SK-MEL-5 melanoma = test system: SK-MEL-5 melanoma
SK-OV-3 ovarian = test system: SK-OV-3 ovarian
SN12C renal = test system: SN12C renal
SNB-19 CNS = test system: SNB-19 CNS
SNB-75 CNS = test system: SNB-75 CNS
SR leukemia = test system: SR leukemia
SW-620 colon = test system: SW-620 colon
T-47D breast = test system: T-47D breast
TK-10 renal = test system: TK-10 renal
U251 CNS = test system: U251 CNS
UACC-257 melanoma = test system: UACC-257 melanoma
UACC-62 melanoma = test system: UACC-62 melanoma
UO-31 renal = test system: UO-31 renal
NCI/ADR-RES ovarian = test system: NCI/ADR-RES ovarian
OVCAR-4 ovarian = test system: OVCAR-4 ovarian

O=C(O)c1cccc(S(=O)(=O)NN2C(=O)CSC2c2ccc(Cl)cc2Cl)c1 (stereo not given)
TGI (786-0 renal): 29.4 µM | TGI (A498 renal): > 100 µM | TGI (A549 NSCLC): > 100 µM | TGI (ACHN renal): > 100 µM | TGI (BT-549 breast): > 100 µM | TGI (CAKI-1 renal): > 100 µM | TGI (CCRF-CEM leukemia): > 100 µM | TGI (COLO 205 colon): > 100 µM | TGI (DU-145 prostate): > 100 µM | TGI (EKVX NSCLC): > 100 µM | TGI (HCC-2998 colon): > 100 µM | TGI (HCT-116 colon): 83.1 µM | TGI (HCT-15 colon): > 100 µM | TGI (HL-60(TB) leukemia): 34 µM | TGI (HOP-62 NSCLC): > 100 µM | TGI (HOP-92 NSCLC): > 100 µM | TGI (HS 578T breast): 58.4 µM | TGI (HT29 colon): > 100 µM | TGI (IGROV1 ovarian): > 100 µM | TGI (K-562 leukemia): > 100 µM | TGI (KM12 colon): > 100 µM | TGI (LOX IMVI melanoma): > 100 µM | TGI (M14 melanoma): > 100 µM | TGI (MALME-3M melanoma): > 100 µM | TGI (MCF7 breast): > 100 µM | TGI (MDA-MB-231 breast): > 100 µM | TGI (MDA-MB-435): 47 µM | TGI (MDA-N): > 100 µM | TGI (MOLT-4 leukemia): > 100 µM | TGI (NCI-H226 lung): > 100 µM | TGI (NCI-H23 lung): > 100 µM | TGI (NCI-H460 lung): > 100 µM | TGI (NCI-H522 lung): 91.4 µM | TGI (OVCAR-3 ovarian): > 100 µM | TGI (OVCAR-5 ovarian): > 100 µM | TGI (OVCAR-8 ovarian): 30.2 µM | TGI (PC-3 prostate): > 100 µM | TGI (RPMI-8226 leukemia): > 100 µM | TGI (RXF 393 renal): > 100 µM | TGI (SF-268 CNS): > 100 µM | TGI (SF-295 CNS): > 100 µM | TGI (SF-539 CNS): 40 µM | TGI (SK-MEL-2 melanoma): > 100 µM | TGI (SK-MEL-28 melanoma): 75.8 µM | TGI (SK-MEL-5 melanoma): > 100 µM | TGI (SK-OV-3 ovarian): > 100 µM | TGI (SN12C renal): > 100 µM | TGI (SNB-19 CNS): > 100 µM | TGI (SNB-75 CNS): > 100 µM | TGI (SR leukemia): 83.5 µM | TGI (SW-620 colon): > 100 µM | TGI (T-47D breast): > 100 µM | TGI (TK-10 renal): > 100 µM | TGI (U251 CNS): 44.7 µM | TGI (UACC-257 melanoma): > 100 µM | TGI (UACC-62 melanoma): 86.3 µM | TGI (UO-31 renal): > 100 µM

COc1ccc(/C=N/NC(=O)c2ccc(O)c(CN(C)C)c2)cc1
TGI (786-0 renal): > 100 µM | TGI (A498 renal): 37.4 µM | TGI (A549 NSCLC): > 100 µM | TGI (ACHN renal): > 100 µM | TGI (BT-549 breast): > 100 µM | TGI (CAKI-1 renal): > 100 µM | TGI (CCRF-CEM leukemia): > 100 µM | TGI (COLO 205 colon): > 100 µM | TGI (DU-145 prostate): > 100 µM | TGI (EKVX NSCLC): > 100 µM | TGI (HCC-2998 colon): > 100 µM | TGI (HCT-116 colon): > 100 µM | TGI (HCT-15 colon): > 100 µM | TGI (HL-60(TB) leukemia): > 100 µM | TGI (HOP-62 NSCLC): > 100 µM | TGI (HOP-92 NSCLC): > 100 µM | TGI (HS 578T breast): > 100 µM | TGI (HT29 colon): > 100 µM | TGI (IGROV1 ovarian): > 100 µM | TGI (K-562 leukemia): > 100 µM | TGI (KM12 colon): > 100 µM | TGI (LOX IMVI melanoma): > 100 µM | TGI (M14 melanoma): > 100 µM | TGI (MALME-3M melanoma): > 100 µM | TGI (MCF7 breast): > 100 µM | TGI (MDA-MB-231 breast): > 100 µM | TGI (MDA-MB-435): > 100 µM | TGI (MDA-N): > 100 µM | TGI (MOLT-4 leukemia): > 100 µM | TGI (NCI-H226 lung): > 100 µM | TGI (NCI-H23 lung): > 100 µM | TGI (NCI-H460 lung): > 100 µM | TGI (NCI-H522 lung): 90.3 µM | TGI (NCI/ADR-RES ovarian): > 100 µM | TGI (OVCAR-3 ovarian): > 100 µM | TGI (OVCAR-4 ovarian): > 100 µM | TGI (OVCAR-5 ovarian): > 100 µM | TGI (OVCAR-8 ovarian): > 100 µM | TGI (PC-3 prostate): > 100 µM | TGI (RXF 393 renal): > 100 µM | TGI (SF-268 CNS): > 100 µM | TGI (SF-295 CNS): > 100 µM | TGI (SF-539 CNS): > 100 µM | TGI (SK-MEL-2 melanoma): > 100 µM | TGI (SK-MEL-28 melanoma): > 100 µM | TGI (SK-MEL-5 melanoma): > 100 µM | TGI (SK-OV-3 ovarian): > 100 µM | TGI (SN12C renal): > 100 µM | TGI (SNB-19 CNS): > 100 µM | TGI (SR leukemia): > 100 µM | TGI (SW-620 colon): > 100 µM | TGI (T-47D breast): > 100 µM | TGI (TK-10 renal): > 100 µM | TGI (U251 CNS): > 100 µM | TGI (UACC-257 melanoma): > 100 µM | TGI (UACC-62 melanoma): > 100 µM | TGI (UO-31 renal): > 100 µM

CCCCOCCOC1=C(Cl)C(=O)c2c(O)ccc(O)c2C1=O
TGI (786-0 renal): 0.505 µM | TGI (A498 renal): 4.33 µM | TGI (A549 NSCLC): 4.64 µM | TGI (ACHN renal): 1.1 µM | TGI (BT-549 breast): 0.341 µM | TGI (CAKI-1 renal): 1.36 µM | TGI (CCRF-CEM leukemia): 0.242 µM | TGI (COLO 205 colon): 0.397 µM | TGI (DU-145 prostate): 3.08 µM | TGI (EKVX NSCLC): 7.59 µM | TGI (HCC-2998 colon): 6.01 µM | TGI (HCT-116 colon): 0.841 µM | TGI (HCT-15 colon): 0.331 µM | TGI (HOP-62 NSCLC): 2.49 µM | TGI (HOP-92 NSCLC): 0.657 µM | TGI (HS 578T breast): 5.43 µM | TGI (HT29 colon): 2.16 µM | TGI (IGROV1 ovarian): 2.47 µM | TGI (KM12 colon): 3.37 µM | TGI (LOX IMVI melanoma): 0.946 µM | TGI (M14 melanoma): 0.525 µM | TGI (MALME-3M melanoma): 0.628 µM | TGI (MCF7 breast): 2.04 µM | TGI (MDA-MB-231 breast): 1.07 µM | TGI (MDA-MB-435): 1.07 µM | TGI (MDA-N): 0.766 µM | TGI (MOLT-4 leukemia): 1.96 µM | TGI (NCI-H226 lung): 4.63 µM | TGI (NCI-H23 lung): 1.02 µM | TGI (NCI-H460 lung): 3.48 µM | TGI (NCI-H522 lung): 1.33 µM | TGI (NCI/ADR-RES ovarian): 9.14 µM | TGI (OVCAR-3 ovarian): 1.63 µM | TGI (OVCAR-4 ovarian): 1.99 µM | TGI (OVCAR-5 ovarian): 2.66 µM | TGI (OVCAR-8 ovarian): 2.56 µM | TGI (PC-3 prostate): 3.08 µM | TGI (RPMI-8226 leukemia): 0.806 µM | TGI (RXF 393 renal): 0.668 µM | TGI (SF-268 CNS): 3.18 µM | TGI (SF-295 CNS): 2.91 µM | TGI (SF-539 CNS): 2.44 µM | TGI (SK-MEL-2 melanoma): 2.78 µM | TGI (SK-MEL-28 melanoma): 1.23 µM | TGI (SK-MEL-5 melanoma): 1.98 µM | TGI (SK-OV-3 ovarian): 6.65 µM | TGI (SN12C renal): 1.59 µM | TGI (SNB-19 CNS): 1.82 µM | TGI (SNB-75 CNS): 2.01 µM | TGI (SW-620 colon): 0.387 µM | TGI (T-47D breast): 4.07 µM | TGI (TK-10 renal): 1.81 µM | TGI (U251 CNS): 3.55 µM | TGI (UACC-257 melanoma): 1.15 µM | TGI (UACC-62 melanoma): 2.64 µM | TGI (UO-31 renal): 1.72 µM
